Molecular target: T1, human KMO (Homo sapiens, UniProt O15229)
T1 construct: Full length human KMO was amplified by PCR from pcDNA5/FRT/V5-His-TOPO/hKMO; made in house; host or cells: Spodoptera frugiperda Sf9 cells (baculovirus); purified membrane fraction used
Assay: KMO MS Rapidfire assay
Assay type: biochemical
Conditions: human KMO-membranes from Sf9 cells, 10 μM Kynurenine, 200 μM NADPH, 3-HK detected by MS
Experimental: pFastbac1 GST-KMO was transposed into the baculovirus genome using the BAC-to-BAC technology (Invitrogen) and bacmid DNA was prepared and transfected into Spodoptera frugiperda (Sf9) cells using Cellfectin II (Invitrogen).
Cells were harvested after 48 hours and disrupted by blending in 50 mM Hepes, pH 7.4, 1 mM EDTA buffer containing protease inhibitors. A low speed spin (400 g) was used to remove cell debris, followed by a high speed spin (75 000 g) to pellet the membranes. The membranes were purified in a discontinuous sucrose density gradient by re-suspending in 10% (w/v) sucrose and layering over 40% (w/v) sucrose, both in the above buffer. This was centrifuged at 150 000 g and the purified membranes were taken from the interface, collected by centrifugation at 100 000 g, resuspended in buffer and aliquoted for storage at −80° C.
11 point, 3-fold serial dilutions of test compounds were prepared in DMSO and 100 nL of these solutions were dispensed into 384-well V-base polypropylene plates (Greiner Bio-one, Stonehouse, UK) using an Echo 555 acoustic dispenser (Labcyte, Sunnyvale, Calif.). This gave a final assay concentration range between 100 μM and 1.7 nM in 10 μL final assay volume (see below). 100 nL DMSO was dispensed into columns 6 and 18 for high and low controls, respectively, with prior inactivation of the enzyme in column 18 by pre-dispense of 30 μL of 0.5% (v/v) TFA. […]

T1 sequence (O15229 whole entry): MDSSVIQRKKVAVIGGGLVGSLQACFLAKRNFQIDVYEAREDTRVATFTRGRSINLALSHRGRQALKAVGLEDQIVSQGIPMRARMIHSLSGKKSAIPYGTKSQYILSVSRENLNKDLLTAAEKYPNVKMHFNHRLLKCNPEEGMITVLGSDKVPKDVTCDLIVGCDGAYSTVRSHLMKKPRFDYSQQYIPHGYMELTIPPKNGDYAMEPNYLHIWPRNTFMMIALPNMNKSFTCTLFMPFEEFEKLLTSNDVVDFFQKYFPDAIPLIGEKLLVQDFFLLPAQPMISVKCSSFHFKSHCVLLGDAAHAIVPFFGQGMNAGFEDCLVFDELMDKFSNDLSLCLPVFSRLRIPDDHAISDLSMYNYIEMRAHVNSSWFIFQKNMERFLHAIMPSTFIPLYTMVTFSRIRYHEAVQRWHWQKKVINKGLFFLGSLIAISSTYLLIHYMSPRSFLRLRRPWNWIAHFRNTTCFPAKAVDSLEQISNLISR

## Cc1cc2oc(=O)n(CCC(=O)O)c2cc1Cl [Example 1, 3-(5-Chloro-6-methyl-2-oxobenzo[d]oxazol-3(2H)-yl)propanoic Acid]
  median pIC50: 7.9

Reference: patent US11352334B2, “3-(5-chloro-2-oxobenzo[d]oxazol-3(2H)-yl) propanoic acid derivatives as KMO inhibitors” (THE UNIVERSITY COURT OF THE UNIVERSITY OF EDINBURGH, priority 2013, dated 2022)
